Drawing on ChEMBL document CHEMBL3865783, “Synthesis and antimicrobial activity against Pseudomonas aeruginosa of macrocyclic β-hairpin peptidomimetic antibiotics containing N-methylated amino acids” (Bioorg Med Chem, 2016), this text covers MIC for 13 compounds.

Assay [1] concerns Pseudomonas aeruginosa. As to the kind of experiment: Inhibition of LptD in Pseudomonas aeruginosa ATCC 27853 assessed as microbial growth inhibition by microbroth dilution method. A general note: Dilution methods test growth across graded concentrations, often in twofold steps.
In assay [2] the target is T1, LPS-assembly protein LptD (Pseudomonas aeruginosa (strain ATCC 15692 / DSM 22644 / CIP 104116 /JCM 14847 / LMG 12228 / 1C / PRS 101 / PAO1)) (UniProt Q9I5U2).
T1 sequence (whole entry): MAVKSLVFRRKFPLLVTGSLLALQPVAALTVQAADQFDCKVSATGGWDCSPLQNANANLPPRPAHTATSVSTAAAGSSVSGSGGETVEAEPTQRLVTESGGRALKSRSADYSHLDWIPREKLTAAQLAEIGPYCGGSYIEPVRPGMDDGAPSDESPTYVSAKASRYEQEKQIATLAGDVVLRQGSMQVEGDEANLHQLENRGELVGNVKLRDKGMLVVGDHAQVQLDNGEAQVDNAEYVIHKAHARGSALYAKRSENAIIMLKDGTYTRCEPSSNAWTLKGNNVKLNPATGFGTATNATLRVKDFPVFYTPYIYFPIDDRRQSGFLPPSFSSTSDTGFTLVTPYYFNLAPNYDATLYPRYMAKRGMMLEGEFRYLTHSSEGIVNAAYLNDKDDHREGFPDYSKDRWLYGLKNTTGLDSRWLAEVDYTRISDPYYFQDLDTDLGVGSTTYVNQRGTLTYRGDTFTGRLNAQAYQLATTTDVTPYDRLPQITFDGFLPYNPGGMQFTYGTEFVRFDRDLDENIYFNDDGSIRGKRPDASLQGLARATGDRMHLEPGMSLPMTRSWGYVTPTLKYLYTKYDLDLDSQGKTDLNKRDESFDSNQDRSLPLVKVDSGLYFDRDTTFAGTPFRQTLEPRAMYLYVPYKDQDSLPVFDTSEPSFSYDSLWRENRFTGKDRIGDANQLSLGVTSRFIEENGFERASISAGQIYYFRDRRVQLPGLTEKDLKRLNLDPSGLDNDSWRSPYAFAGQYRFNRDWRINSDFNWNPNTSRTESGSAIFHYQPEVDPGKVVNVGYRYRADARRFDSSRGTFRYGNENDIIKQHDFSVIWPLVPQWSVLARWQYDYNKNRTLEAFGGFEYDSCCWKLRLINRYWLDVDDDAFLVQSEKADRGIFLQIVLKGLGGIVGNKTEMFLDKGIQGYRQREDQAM
As to the kind of experiment: Inhibition of LptD in Pseudomonas aeruginosa PAO1 assessed as microbial growth inhibition by microbroth dilution method.

Each structure is given as a SMILES string.

Take `CC(C)C[C@H]1C(=O)N[C@@H](CCN)C(=O)N[C@@H](CCCN)C(=O)N[C@H](CCCCN)C(=O)N[C@@H](CCCNC(=N)N)C(=O)N[C@@H](Cc2c[nH]c3ccccc23)C(=O)N[C@@H](CCCN)C(=O)N[C@@H](CCN)C(=O)N[C@@H](C)C(=O)N[C@@H](CCCCN)C(=O)N2CCC[C@@H]2C(=O)N2CCC[C@H]2C(=O)N[C@@H]([C@@H](C)O)C(=O)N[C@@H](Cc2c[nH]c3ccccc23)C(=O)N1C`: the MIC in assay [1] and in assay [2] was greater than 64 µg/mL each time.

Take `CC(C)C[C@@H]1NC(=O)[C@H](Cc2c[nH]c3ccccc23)NC(=O)[C@H]([C@@H](C)O)NC(=O)[C@@H]2CCCN2C(=O)[C@H]2CCCN2C(=O)[C@H](CCCCN)N(C)C(=O)[C@H](C)NC(=O)[C@H](CCN)NC(=O)[C@H](CCCN)NC(=O)[C@H](Cc2c[nH]c3ccccc23)NC(=O)[C@H](CCCNC(=N)N)NC(=O)[C@@H](CCCCN)NC(=O)[C@H](CCCN)NC(=O)[C@H](CCN)NC1=O`: the MIC in assay [1] and in assay [2] was greater than 64 µg/mL throughout.

With `CC(C)C[C@@H]1NC(=O)[C@H](Cc2c[nH]c3ccccc23)NC(=O)[C@H]([C@@H](C)O)NC(=O)[C@@H]2CCCN2C(=O)[C@H]2CCCN2C(=O)[C@H](CCCCN)NC(=O)[C@H](C)NC(=O)[C@H](CCN)NC(=O)[C@H](CCCN)NC(=O)[C@H](Cc2c[nH]c3ccccc23)NC(=O)[C@H](CCCNC(=N)N)NC(=O)[C@@H](CCCCN)NC(=O)[C@H](CCCN)NC(=O)[C@H](CCN)N(C)C1=O`, the MIC in assay [1] amounted to 0.005 µg/mL; in assay [2] it was 0.009 µg/mL.

As for `CC(C)C[C@@H]1NC(=O)[C@H](Cc2c[nH]c3ccccc23)NC(=O)[C@H]([C@@H](C)O)N(C)C(=O)[C@@H]2CCCN2C(=O)[C@H]2CCCN2C(=O)[C@H](CCCCN)NC(=O)[C@H](C)NC(=O)[C@H](CCN)NC(=O)[C@H](CCCN)NC(=O)[C@H](Cc2c[nH]c3ccccc23)NC(=O)[C@H](CCCNC(=N)N)NC(=O)[C@@H](CCCCN)NC(=O)[C@H](CCCN)NC(=O)[C@H](CCN)NC1=O`, the MIC in assay [1] stood at 0.19 µg/mL; in assay [2], 0.38 µg/mL.

Consider `CC(C)C[C@@H]1NC(=O)[C@H](Cc2c[nH]c3ccccc23)NC(=O)[C@H]([C@@H](C)O)NC(=O)[C@@H]2CCCN2C(=O)[C@H]2CCCN2C(=O)[C@H](CCCCN)NC(=O)[C@H](C)N(C)C(=O)[C@H](CCN)NC(=O)[C@H](CCCN)NC(=O)[C@H](Cc2c[nH]c3ccccc23)NC(=O)[C@H](CCCNC(=N)N)NC(=O)[C@@H](CCCCN)NC(=O)[C@H](CCCN)NC(=O)[C@H](CCN)NC1=O`, for which the MIC in assay [1] and in assay [2] was greater than 64 µg/mL throughout.

Turning to `CC(C)C[C@@H]1NC(=O)[C@H](Cc2c[nH]c3ccccc23)NC(=O)[C@H]([C@@H](C)O)NC(=O)[C@@H]2CCCN2C(=O)[C@H]2CCCN2C(=O)[C@H](CCCCN)NC(=O)[C@H](C)NC(=O)[C@H](CCN)NC(=O)[C@H](CCCN)NC(=O)[C@H](Cc2c[nH]c3ccccc23)NC(=O)[C@H](CCCNC(=N)N)NC(=O)[C@@H](CCCCN)NC(=O)[C@H](CCCN)N(C)C(=O)[C@H](CCN)NC1=O`, the MIC in assay [1] amounted to 0.009 µg/mL; in assay [2], 0.008 µg/mL.

As to `CC(C)C[C@@H]1NC(=O)[C@H](Cc2c[nH]c3ccccc23)N(C)C(=O)[C@H]([C@@H](C)O)NC(=O)[C@@H]2CCCN2C(=O)[C@H]2CCCN2C(=O)[C@H](CCCCN)NC(=O)[C@H](C)NC(=O)[C@H](CCN)NC(=O)[C@H](CCCN)NC(=O)[C@H](Cc2c[nH]c3ccccc23)NC(=O)[C@H](CCCNC(=N)N)NC(=O)[C@@H](CCCCN)NC(=O)[C@H](CCCN)NC(=O)[C@H](CCN)NC1=O`, the MIC in assay [1] and in assay [2] was greater than 64 µg/mL each time.

As for `CC(C)C[C@@H]1NC(=O)[C@H](Cc2c[nH]c3ccccc23)NC(=O)[C@H]([C@@H](C)O)NC(=O)[C@@H]2CCCN2C(=O)[C@H]2CCCN2C(=O)[C@H](CCCCN)NC(=O)[C@H](C)NC(=O)[C@H](CCN)NC(=O)[C@H](CCCN)NC(=O)[C@H](Cc2c[nH]c3ccccc23)NC(=O)[C@H](CCCNC(=N)N)N(C)C(=O)[C@@H](CCCCN)NC(=O)[C@H](CCCN)NC(=O)[C@H](CCN)NC1=O`, the MIC in assay [1] came to 0.38 µg/mL; in assay [2], 0.75 µg/mL.

For `CC(C)C[C@@H]1NC(=O)[C@H](Cc2c[nH]c3ccccc23)NC(=O)[C@H]([C@@H](C)O)NC(=O)[C@@H]2CCCN2C(=O)[C@H]2CCCN2C(=O)[C@H](CCCCN)NC(=O)[C@H](C)NC(=O)[C@H](CCN)NC(=O)[C@H](CCCN)NC(=O)[C@H](Cc2c[nH]c3ccccc23)N(C)C(=O)[C@H](CCCNC(=N)N)NC(=O)[C@@H](CCCCN)NC(=O)[C@H](CCCN)NC(=O)[C@H](CCN)NC1=O`, the figures for the MIC in assay [1] and in assay [2] were 0.023 µg/mL and 0.13 µg/mL, respectively.

For the compound `CC(C)C[C@@H]1NC(=O)[C@H](Cc2c[nH]c3ccccc23)NC(=O)[C@H]([C@@H](C)O)NC(=O)[C@@H]2CCCN2C(=O)[C@H]2CCCN2C(=O)[C@H](CCCCN)NC(=O)[C@H](C)NC(=O)[C@H](CCN)NC(=O)[C@H](CCCN)N(C)C(=O)[C@H](Cc2c[nH]c3ccccc23)NC(=O)[C@H](CCCNC(=N)N)NC(=O)[C@@H](CCCCN)NC(=O)[C@H](CCCN)NC(=O)[C@H](CCN)NC1=O`, the figures for the MIC in assay [1] and in assay [2] were 12 µg/mL and 16 µg/mL, respectively.

On to `CC(C)C[C@@H]1NC(=O)[C@H](Cc2c[nH]c3ccccc23)NC(=O)[C@H]([C@@H](C)O)NC(=O)[C@@H]2CCCN2C(=O)[C@H]2CCCN2C(=O)[C@H](CCCCN)NC(=O)[C@H](C)NC(=O)[C@H](CCN)NC(=O)[C@H](CCCN)NC(=O)[C@H](Cc2c[nH]c3ccccc23)NC(=O)[C@H](CCCNC(=N)N)NC(=O)[C@@H](CCCCN)NC(=O)[C@H](CCCN)NC(=O)[C@H](CCN)NC1=O`, for which the MIC in assay [1] is 0.008 µg/mL; in assay [2] it was 0.015 µg/mL.

As for `CC(C)C[C@@H]1NC(=O)[C@H](Cc2c[nH]c3ccccc23)NC(=O)[C@H]([C@@H](C)O)NC(=O)[C@@H]2CCCN2C(=O)[C@H]2CCCN2C(=O)[C@H](CCCCN)NC(=O)[C@H](C)NC(=O)[C@H](CCN)NC(=O)[C@H](CCCN)NC(=O)[C@H](Cc2c[nH]c3ccccc23)NC(=O)[C@H](CCCNC(=N)N)NC(=O)[C@@H](CCCCN)N(C)C(=O)[C@H](CCCN)NC(=O)[C@H](CCN)NC1=O`, the MIC in assay [1] was 0.012 µg/mL; in assay [2], 0.025 µg/mL.

On to `CC(C)C[C@@H]1NC(=O)[C@H](Cc2c[nH]c3ccccc23)NC(=O)[C@H]([C@@H](C)O)NC(=O)[C@@H]2CCCN2C(=O)[C@H]2CCCN2C(=O)[C@H](CCCCN)NC(=O)[C@H](C)NC(=O)[C@H](CCN)N(C)C(=O)[C@H](CCCN)NC(=O)[C@H](Cc2c[nH]c3ccccc23)NC(=O)[C@H](CCCNC(=N)N)NC(=O)[C@@H](CCCCN)NC(=O)[C@H](CCCN)NC(=O)[C@H](CCN)NC1=O`, for which the MIC in assay [1] was determined as 1 µg/mL; in assay [2], 12 µg/mL.
